# Experimental data as given in patent US20230149326A1, “PHARMACEUTICAL COMPOSITION FOR PREVENTING OR TREATING MUSCULAR WEAKNESS-RELATED DISEASES COMPRISING ALVERINE, 4-HYDROXY ALVERINE, DERIVATIVE THEREOF, OR PHARMACEUTICALLY ACCEPTABLE SALT THEREOF” (AVENTI INC., priority 2020, published 2023).
# Where a name gives a salt, the structure may show the parent alone.
# Assays:
# [1] = tested on: C57BL/6 male mice; test: Balance coordination test (rota-rod), normal mouse; format: in vivo
# Experimental: In order to confirm the muscle strength enhancement effect of alverine citrate, after administering alverine citrate to a mouse, the mouse was tested for motor functions such as grip strength, running, balance coordination, and the like. After motor function tests, muscle weight was measured. In particular, each of 10 week-old C57BL/6 male mice was dosed orally with 200 μL of alverine citrate for 4 weeks, at a daily dose of 17 mg/kg/day (AC-L), 50 mg/kg/day (AC-M) or 150 mg/kg/day (AC-H). This group of mice was set as the experimental group (FIG. 3). The 10 week-old C57BL/6 male mice were purchased from Daehan BioLink. Balance coordination was measured using a rota-rod test. The rota-rod test device consists of 4 test zones, each having a shaft diameter of 3 cm and a lane width of 9 cm, and 5 rotatable circular dividers having a diameter of 60 cm and a round rod. The test was started from a rotating speed of 10 rpm, and the speed was accelerated up to maximum 40 rpm over 5 minutes, and the duration for which the mouse remains inside the rota-rod device, clinging to the round rod without falling, was recorded. The mouse was allowed to rest for 15 minutes after each test and was subjected to three tests in total. An average value of three measurements was calculated.
# [2] = tested on: C2C12 cells; test: Myotube atrophy induced by C26 cancer cell conditioned medium (cachexia model); format: cell-based, mouse; settings: 1 μM; differentiation media with 33% CM, 3 days
# Experimental: In order to confirm a cachexia treatment effect of alverine citrate and 4-hydroxy alverine, an experiment mimicking a tumor-growth environment by treatment of a cancer cell conditioned medium (CM) was conducted as an ex vivo approach. First, cancer cell CM was prepared using a C26 cancer cell line. Here, as cancel cell growth media (GM), RPMI1640 media supplemented with 10% fetal bovine serum was used. The C26 cancer cell line was cultured using a 100 mm cell culture plate and the cancer cell GM. Here, the media were removed when cell confluency reached 90%. Then, after washing with phosphate buffer (1× buffer), the prepared differentiation media were treated following the same process as in Example 1. After 24 hours, a C26 cancer cell line CM was obtained and filtered using bottle top filters (Thermo, PES, 1 L) before use.
# C2C12 cells were dispensed in a 6-well plate treated with the GM of Example 1.1 at a concentration of 5×10^5 cells per plate and after 24 hours, were replaced with DMEM media supplemented with 5% HS and induced for differentiation. […] Here, by treating the experimental groups with 1 μM alverine citrate (AC) and 4-hydroxy alverine (4HA), the effect of suppressing myotube atrophy was evaluated. […] Following the same method as in Example 1.2, by florescent staining using antibodies against MyHC, the expression amount of MyHC was measured.
# [3] = tested on: C57BL/6 male mice; test: Running ability test (treadmill), normal mouse; format: in vivo; settings: oral
# Experimental: In order to confirm the muscle strength enhancement effect of alverine citrate, after administering alverine citrate to a mouse, the mouse was tested for motor functions such as grip strength, running, balance coordination, and the like. After motor function tests, muscle weight was measured. In particular, each of 10 week-old C57BL/6 male mice was dosed orally with 200 μL of alverine citrate for 4 weeks, at a daily dose of 17 mg/kg/day (AC-L), 50 mg/kg/day (AC-M) or 150 mg/kg/day (AC-H). This group of mice was set as the experimental group (FIG. 3). The 10 week-old C57BL/6 male mice were purchased from Daehan BioLink. Running ability was measured using a treadmill designed specific for this experiment. First, aversive stimuli were provided by letting electric stimuli flow at the starting point. Before the measurement, the mice were acclimatized at 8 m/min for 10 minutes. The running time was recorded by allowing mice in each group to run in separate lanes until exhaustion. Exhaustion was defined such that when the mouse stays outside the lanes for 10 seconds or more without running, the mouse was determined to be exhausted and the time was recorded. It was not possible to repeat this experiment on the same mouse. The mouse was placed on the treadmill and the test was started at 8 rpm, and the speed was accelerated by 2 rpm every 10 minutes to a maximum speed of 20 rpm. […]
# [4] = tested on: C57BL/6 male mice; test: Grip strength measurement, normal mouse; format: in vivo; settings: oral, 4 weeks, 17, 50 or 150 mg/kg/day; compared with normal group
# Experimental: In order to confirm the muscle strength enhancement effect of alverine citrate, after administering alverine citrate to a mouse, the mouse was tested for motor functions such as grip strength, running, balance coordination, and the like. After motor function tests, muscle weight was measured. In particular, each of 10 week-old C57BL/6 male mice was dosed orally with 200 μL of alverine citrate for 4 weeks, at a daily dose of 17 mg/kg/day (AC-L), 50 mg/kg/day (AC-M) or 150 mg/kg/day (AC-H). This group of mice was set as the experimental group (FIG. 3). The 10 week-old C57BL/6 male mice were purchased from Daehan BioLink. Grip strength was measured using a grip strength meter for mice (Bioseb, USA). In particular, the mice were placed on a metal grid connected to an instrument panel through which grip strength can be monitored, and while pulling the mice back by tail, the grip strength by which the mice grabbed the metal grid was measured. Here, 5 consecutive, repeated measurements were recorded and an average value of the 5 measurements was calculated.
compound,measurement,setting,value
CCN(CCCc1ccccc1)CCCc1ccccc1 [alverine citrate],"duration clinging to the round rod, dependence on dose","[1]; as the administration dose increased (17, 50, 150 mg/kg/day)",also increased proportionally
same,duration clinging onto the round rod,"[1]; oral, 4 weeks, 17, 50 or 150 mg/kg/day, compared with normal group",increased compared to the normal group mouse
same,myotube atrophy,[2],myotube atrophy was suppressed
same,running time,"[3]; 4 weeks, 150 mg/kg/day",significant increase in the running time
same,running time,"[3]; 4 weeks, 17, 50 or 150 mg/kg/day, compared with normal group",increased compared to the normal group mouse
same,grip strength,[4],higher than that of the mouse in the normal group
